According to patent publication US20080032992A1, “New Pyridine Analogues V” (ASTRAZENECA AB, priority 2006, published 2008):

Target: T1, P2Y12 receptor (Homo sapiens, UniProt Q9H244)
T1 construct: expressed in transfected cells; host or cells: CHO cells (membranes)
Assay: Functional inhibition of 2-Me-S-ADP induced P2Y12 signalling (35S-GTPγS binding, membranes from P2Y12 transfected CHO-cells)
Type: biochemical
Conditions: EC80 concentration of agonist 2-methyl-thio-adenosine diphosphate, 30° C. for 45 min
Procedure: Functional inhibition of the P2Y12 receptor can be measured by in vitro assays using cell membranes from P2Y12 transfected CHO-cells, the methodology is indicated below.
Functional inhibition of 2-Me-S-ADP induced P2Y12 signalling: 5 μg of membranes were diluted in 200 μl of 200 mM NaCl, 1 mM MgCl2, 50 mM HEPES (pH 7.4), 0.01% BSA, 30 μg/ml saponin and 10 μM GDP. To this was added an EC80 concentration of agonist (2-methyl-thio-adenosine diphosphate), the required concentration of test compound and 0.1 μCi ^35S-GTPγS. The reaction was allowed to proceed at 30° C. for 45 min. Samples were then transferred on to GF/B filters using a cell harvester and washed with wash buffer (50 mM Tris (pH 7.4), 5 mM MgCl2, 50 mM NaCl). Filters were then covered with scintillate and counted for the amount of ^35S-GTPγS retained by the filter. Maximum activity was that determined in the presence of the agonist and minimum activity in the absence of the agonist following subtraction of the value determined for non-specific activity. The effect of compounds at various concentrations was plotted according to the equation y=A+((B−A)/(1+((C/x)ˆD))) and IC50 estimated where
A is the bottom plateau of the curve i.e. the final minimum y value
B is the top of the plateau of the curve i.e. the final maximum y value
C is the x value at the middle of the curve. This represents the log EC50 value when A+B=100 […]

T1 sequence (Q9H244 whole entry): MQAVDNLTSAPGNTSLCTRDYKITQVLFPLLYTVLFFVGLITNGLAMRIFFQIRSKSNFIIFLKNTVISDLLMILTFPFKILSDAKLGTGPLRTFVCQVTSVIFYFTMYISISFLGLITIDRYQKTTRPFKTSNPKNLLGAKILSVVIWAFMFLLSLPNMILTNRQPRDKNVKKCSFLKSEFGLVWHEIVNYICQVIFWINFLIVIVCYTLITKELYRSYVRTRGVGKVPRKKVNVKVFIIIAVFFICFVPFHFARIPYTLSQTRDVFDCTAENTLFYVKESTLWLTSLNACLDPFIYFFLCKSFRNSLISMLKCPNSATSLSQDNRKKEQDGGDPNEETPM

Row | SMILES | IC50
1 | CCOC(=O)c1cc(C#N)c(N2CCN(Cc3cn(-c4ccccc4)nn3)CC2)nc1C [Example 2, Ethyl 5-cyano-2-methyl-6-{4-[(1-phenyl-1H-1,2,3-triazol-4-yl)methyl]piperazin-1-yl}nicotinate] | 690 nM
2 | CCOC(=O)c1cc(C#N)c(N2CCC(c3nnc(-c4ccccc4)[nH]3)CC2)nc1C [Example 3, Ethyl 5-cyano-2-methyl-6-[4-(5-phenyl-4-h-1,2,4-triazol-3-yl)piperidin-1-yl]nicotinate] | 330 nM
